From patent US6160004A, “C-10 carbon-substituted artemisinin-like trioxane compounds having antimalarial, antiproliferative and antitumor activities” (priority 1998, dated 2000)
Read-outs that look alike come from different tables or passages of the source.

Legend:
[1] = test system: HT29; assay: cells; format: cell-based; details: Homo sapiens; for GI50: read-out: Log10 GI50 (converted)
[2] = test system: HCT-15; assay: cells; format: cell-based; details: Homo sapiens; for CC50: read-out: Log10 LC50 (converted)
[3] = test system: OVCAR-8; assay: cells; format: cell-based; details: Homo sapiens
[4] = test system: ACHN; assay: NCI 60 cell line panel screening assay (SRB), ACHN; format: cell-based; details: Homo sapiens, renal cancer, 48 h, read-out: Log10 GI50 (converted)
[5] = test system: HCT-116; assay: cells; format: cell-based
[6] = test system: SW-620; assay: NCI 60 cell line panel screening assay (SRB), SW-620; format: cell-based; details: Homo sapiens; for GI50: read-out: Log10 GI50 (converted)
[7] = test system: NCI-H23; assay: cells; format: cell-based; details: Homo sapiens, NCI-H23, non-small cell lung cancer, 48 h
[8] = test system: MDA-N; assay: NCI 60 cell line panel screening assay (SRB), MDA-N; format: cell-based; details: Homo sapiens, breast cancer, 48 h
[9] = test system: EKVX; assay: NCI 60 cell line panel screening assay (SRB), EKVX; format: cell-based; details: Homo sapiens, non-small cell lung cancer, 48 h, read-out: Log10 GI50 (converted)
[10] = test system: UACC-62; assay: cells; format: cell-based; details: Homo sapiens, UACC-62, melanoma, 48 h; for GI50: read-out: Log10 GI50 (converted); for IC (TGI): read-out: Log10 TGI
[11] = test system: HS 578T; assay: cells; format: cell-based; details: Homo sapiens, 48 h, read-out: Log10 GI50 (converted)
[12] = test system: MOLT-4; details: MOLT-4, FIG. 6
[13] = test system: K-562; assay: cells; format: cell-based; details: Homo sapiens; for CC50: read-out: Log10 LC50 (converted)
[14] = test system: NCI-H460; assay: cells; format: cell-based; details: Homo sapiens, NCI-H460, non-small cell lung cancer, 48 h
[15] = test system: DU-145; assay: cells; format: cell-based
[16] = test system: SF-539; assay: cells; format: cell-based; details: Homo sapiens, SF-539, 48 h, read-out: Log10 LC50 (converted)
[17] = test system: CAKI-1; assay: NCI 60 cell line panel screening assay (SRB), CAKI-1; format: cell-based; details: Homo sapiens, CAKI-1, renal cancer, 48 h
[18] = test system: MCF7/ADR-RES; assay: cells; format: cell-based; details: Homo sapiens
[19] = test system: MDA-MB231/ATCC; assay: cells; format: cell-based; details: Homo sapiens, MDA-MB-231, breast cancer, 48 h
[20] = test system: SK-MEL-2; assay: cells; format: cell-based; details: Homo sapiens, SK-MEL-2, 48 h, read-out: Log10 LC50 (converted)
[21] = test system: SF-295; assay: cells; format: cell-based; details: Homo sapiens
[22] = test system: MALME-3M; assay: cells; format: cell-based; details: Homo sapiens, MALME-3M, melanoma, 48 h
[23] = test system: A549/ATCC; assay: NCI 60 cell line panel screening assay (SRB), A549/ATCC; format: cell-based; details: Homo sapiens, non-small cell lung cancer, 48 h, read-out: Log10 GI50 (converted)
[24] = test system: HL-60(TB); assay: cells; format: cell-based; details: Homo sapiens, HL-60, 48 h
[25] = test system: OVCAR-4; assay: cells; format: cell-based; details: Homo sapiens
[26] = test system: MDA-MB435; assay: NCI 60 cell line panel screening assay (SRB), MDA-MB435; format: cell-based; details: Homo sapiens, MDA-MB-435, 48 h
[27] = test system: UO-31; assay: NCI 60 cell line panel screening assay (SRB), UO-31; format: cell-based; details: Homo sapiens, UO-31, renal cancer, 48 h
[28] = test system: chloroquine-sensitive P. falciparum (NF54); assay: In vitro antimalarial activity ([3H]hypoxanthine incorporation); format: cell-based; details: Plasmodium falciparum; chloroquine-sensitive P. falciparum NF54, in vitro
[29] = test system: LOX IMVI; assay: cells; format: cell-based; details: Homo sapiens, 48 h, read-out: Log10 GI50 (converted)
[30] = test system: NCI-H522; assay: cells; format: cell-based; details: Homo sapiens, NCI-H522, 48 h
[31] = read-out: Log10 GI50 (converted)
[32] = read-out: Log10 TGI (converted)
[33] = read-out: Log10 LC50 (converted)

For `C[C@@H]1CC[C@H]2[C@@H](C)C(=O)O[C@@H]3O[C@@]4(C)CC[C@@H]1[C@]32OO4` [Artemisinin], the GI50 ([1]; HT-29, HT29, colon cancer, 48 h) was greater than 100 µM, the GI50 ([2]; HCT-15, colon cancer, 48 h, read-out: Log10 GI50 (converted)) was greater than 100 µM and the IC (TGI) ([2]; HCT-15, colon cancer, 48 h, read-out: Log10 TGI) was greater than 100 µM. It also gave a GI50 ([3]; OVCAR-8, ovarian cancer, 48 h, read-out: Log10 GI50 (converted)) greater than 100 µM, a GI50 [4] greater than 100 µM and a GI50 ([5]; Homo sapiens, HCT-116, 48 h; read-out: Log10 GI50 (converted)) of 100 µM. For the same compound, the GI50 ([6]; SW-620, colon cancer, 48 h) was greater than 100 µM, the GI50 [7, 31] was greater than 100 µM and the GI50 [8, 31] was greater than 100 µM. It also gave a GI50 [9] greater than 100 µM, a GI50 [10] greater than 100000 nM and an IC (TGI) [10] greater than 100 µM. For the same compound, the GI50 ([11]; HS 578T, breast cancer) was greater than 100 µM, the “concentration for cytostasis (PG 0)” value [12] was “greater than 10^-4 M” and the IC (TGI) ([13]; K562, K-562, leukemia, 48 h, read-out: Log10 TGI (converted)) was 100 µM. For the same compound, the GI50 [14, 31] was greater than 100 µM and the IC (TGI) [14, 32] was greater than 100 µM.
Compound `C[C@H]1[C@@H](F)O[C@@H]2O[C@@]3(C)CC[C@H]4[C@H](C)CC[C@@H]1[C@@]24OO3` [Compound VI, 10β-Fluoro-10-deoxoartemisinin] has a CC50 ([1]; HT-29, 48 h, read-out: Log10 LC50 (converted)) greater than 100 µM, an IC (TGI) ([1]; HT-29, printed H129, colon cancer, 48 h, read-out: Log10 TGI) greater than 100 µM and a CC50 ([15]; Homo sapiens, DU-145, 48 h, read-out: Log10 LC50 (converted)) greater than 100 µM. The GI50 ([15]; Homo sapiens, DU-145, 48 h; read-out: Log10 GI50 (converted)) was 19.5 µM, the IC (TGI) ([15]; Homo sapiens, DU-145, 48 h; read-out: Log10 TGI) was greater than 100 µM and the CC50 ([2]; HCT-15, 48 h) was greater than 100 µM. It also gave a CC50 ([3]; OVCAR-8, 48 h, read-out: Log10 LC50 (converted)) greater than 100 µM, a CC50 [16] greater than 100 µM and an IC (TGI) ([5]; Homo sapiens, HCT-116, 48 h; read-out: Log10 TGI (converted)) greater than 100 µM. The IC (TGI) [17, 32] was 21.4 µM, the CC50 ([18]; MCF7, 48 h, read-out: Log10 LC50 (converted)) was greater than 100 µM and the IC (TGI) ([18]; MCF7/ADR-RES, breast cancer, 48 h, read-out: Log10 TGI) was greater than 100 µM. It also gave a CC50 [7, 33] greater than 100 µM, a GI50 [19, 31] of 13.2 µM and a CC50 [19, 33] greater than 100 µM. It also gave a CC50 [8, 33] greater than 100 µM, an IC (TGI) [8, 32] of 21.4 µM and a GI50 [10] of 2340 nM. It also gave an IC (TGI) [10] greater than 100 µM, a CC50 [20] greater than 100 µM and a CC50 ([21]; SF-295, 48 h, read-out: Log10 LC50 (converted)) greater than 100 µM. The GI50 ([21]; SF-295, CNS cancer, 48 h, read-out: Log10 GI50 (converted)) was 17 µM, the IC (TGI) ([21]; SF-295, CNS cancer, 48 h, read-out: Log10 TGI) was greater than 100 µM and the CC50 ([13]; K562, K-562, leukemia, 48 h) was greater than 100 µM. For the same compound, the GI50 [22, 31] was 2340 nM and the IC (TGI) ([22]; read-out: Log10 TGI) was greater than 100 µM.
`CC1CCC2C(C)C(CC(=O)c3ccc(C(=O)CC4OC5OC6(C)CCC7C(C)CCC(C4C)C57OO6)cc3)OC3OC4(C)CCC1C32OO4` (stereo not shown) [Dimer 38] showed a GI50 ([1]; HT-29, 48 h) of less than 0.01 µM, a CC50 ([15]; Homo sapiens, DU-145, 48 h; read-out: Log10 LC50 (converted)) greater than 100 µM and a CC50 ([2]; HCT-15, colon cancer, 48 h) greater than 100 µM. The GI50 [23] was less than 10 nM, the GI50 [24, 31] was less than 10 nM and the CC50 [24, 33] was greater than 100 µM. The IC (TGI) ([25]; OVCAR-4, 48 h, read-out: Log10 TGI) was greater than 100 µM, the CC50 ([25]; OVCAR-4, ovarian cancer, 48 h, read-out: Log10 LC50 (converted)) was greater than 100 µM and the GI50 ([5]; Homo sapiens, HCT-116, 48 h, read-out: Log10 GI50 (converted)) was less than 0.01 µM. The GI50 [17, 31] was 11.2 nM, the GI50 ([6]; SW-620, 48 h) was less than 0.01 µM and the CC50 ([6]; SW-620, colon cancer, 48 h, read-out: Log10 LC50 (converted)) was greater than 100 µM. For the same compound, the GI50 [26, 31] was less than 10 nM, the CC50 [26, 33] was greater than 100 µM and the GI50 [27, 31] was 24 nM. The CC50 [27, 33] was greater than 100 µM, the IC50 [28] was 1.9 nM and the GI50 ([11]; Hs-578T) was less than 0.01 µM. The “concentration for cytostasis (PG 0)” value [12] was “approximately 10^-4 M”, the GI50 ([13]; K562, 48 h, read-out: Log10 GI50 (converted)) was less than 10 nM and the CC50 ([13]; K562, 48 h) was greater than 100 µM. It also gave a GI50 [29] of less than 10 nM, a GI50 [30, 31] of less than 10 nM and a CC50 [30, 33] greater than 100 µM.
